This assay relates to IL-1β secretion of BV2. As to the kind of experiment: Inhibition of LPS-induced IL-1β secretion of BV2 microglial cells (ELISA). The assay is classed as cell-based. The note with it: BV-2, 24 hours; for IC50: BV2 cells, 300 ng/ml LPS induction, IL-1β by ELISA, read-out: IC50 of inhibition of the compounds of the present application to IL-1β secretion of BV2; for inhibition at 0.02 µM: Mus musculus, IL-1β secretion of BV2, compound concentration 20 nM, LPS induction, read-out: Inhibition rate (%) at 20 nM. How it is done: 1. […] microglial cell BV2 and Glioma cell line C6 are incubated in DMEM culture medium with 10% FBS, and the 6th to 15th generation culture cells are applicable for compound activity selection. Culture cells are innoculated on the 24-well cell culturing plate with 50,000 cells/well, after one day culturing, switch to low serum medium (with 2% FBS) for another 16 hours culturing. Add 300 ng/ml (for induction of BV2 cells) or 1 mg/mL (for induction of C6 cells) LPS (Salmonella typhimutium) to the culture medium to induce the IL-1β secretion of culture cells. At the same time, add sample to be determined (with DMSO≦0.1%) at concentrations of 200 pM, 20 nM, 2 μM and 200 μM; add 0.1% DMSO to blank as solvent control.
2. 24 hours after LPS induction/drug treatment, collect the culture solution and quantitatively measure the level of IL-1β. Centrifuge the culture solution at 8,000 g for 10 min at 4° C., and remove the floating particle impurities. Dilute the supernant one time, and take 150 μL sample for ELISA (Biosource) measurement.
3. Treatment of culture cells and ELISA measurement are conducted with double blind method.
4 Inhibition efficiency of candidate compound is calculated according to formula, and IC50 of every kind of candidate compound is calculated. Inhibition efficiency(%)=([IL-1β]LPS induction−[IL-1β]medical treatment)/[IL-1β]LPS induction×100%. Formula
5. Efficiency evaluation of candidate compound: positive inhibition rate of compound to IL-1β secretion of BV2 is the standard judgment of compounds efficiency; negative inhibition rate of compound to IL-1β secretion of C6 is the standard judgment of compounds safety.
A general note: An ELISA detects its analyte on a solid surface through an enzyme-linked reagent.

As to `Cc1cc(-c2ccccc2)nnc1C(=O)N1CCN(c2ncc(F)cn2)CC1` [Compound 24], the IC50 was 5.49 nM. Consider `O=C(c1n[nH]c2c(F)ccc(F)c12)N1CCN(c2ccc(F)cc2)CC1` [Compound 20, (4-(4-fluorophenyl)piperazinyl) (4,7-difluoroindazol-3-yl) ketone], for which the IC50 was determined as 42.5 nM and the inhibition at 0.02 µM was determined as 48.06 ± 0.0618%.

Consider `Cc1cc(-c2ccccc2)nnc1C(=O)N1CCN(c2ccc(F)cc2)CC1` [Compound 4, (4-(4-fluorophenyl)piperazinyl) (4-methyl-6-phenylpyridazinyl) ketone], for which the IC50 was 0.56 nM and the inhibition at 0.02 µM was determined as 54.6%. In the same order, the values of `Cc1cc(-c2ccccc2)nnc1C(=O)N1CCN(c2ncccn2)CC1` [Compound 5, (2-pyrimidylpiperazinyl)(4-methyl-6-phenylpyridazinyl)ketone] are 0.6 nM and 54.5%.

Regarding `O=C(c1nc(-c2ccccc2)nc2ccccc12)N1CCN(c2ccccn2)CC1` [Compound 13, (4-(2-pyridinyl)piperazinyl)(2-phenylquinazolinyl)ketone], the IC50 was 24.3 nM. As to `Cc1cc(-c2ccccc2)nnc1C(=O)N1CCN(C)CC1` [Compound 26, (N-methylpiperazinyl) (4-methyl-6-phenylpyridazinyl) ketone], the IC50 was 0.11 nM. Same read-out and setting: the figure for `O=C(c1nc(-c2ccccc2)nc2ccccc12)N1CCN(c2ccc(F)cc2)CC1` [Compound 11, (4-(4-fluorophenyl)piperazinyl) (2-phenylquinazolinyl) ketone] is 3.38 nM; for `O=C(c1nc(-c2ccccc2)nc2ccccc12)N1CCN(c2ncc(F)cn2)CC1` [Compound 12, (4-(5-fluoropyrimid-2-yl)piperazinyl)(2-phenylquinazolinyl) ketone] it is 1.42 nM.

In the case of `O=C(c1nc(-c2ccccc2)nc2ccccc12)N1CCN(c2ncccn2)CC1` [Compound 12a, (4-(pyrimid-2-yl)piperazinyl) (2-phenylquinazolinyl) ketone], the IC50 was 0.16 nM and the inhibition at 0.02 µM turned out to be 46.1%.

As a reminder, the IC50 is the concentration at which inhibition is half-maximal. What is called inhibition is the share of the control response that was lost under treatment.

These data come from patent US9238643B2, “Amide compounds” (Guangzhou Institutes of Biomedicine and Health, Chinese …, priority 2010, dated 2016).
